Test [1] addresses Gastrin/cholecystokinin type B receptor (Oryctolagus cuniculus). The experiment in a line: In vitro inhibition of gastrin-induced [Ca2+] cytosolic elevation in isolated rabbit parietal cells.
Test [2] concerns the target Gastrin/cholecystokinin type B receptor (Cavia porcellus). The experiment in a line: Inhibition of binding of [3H]N-Me-N-Leu-CCK-8 to cholecystokinin type B receptor in guinea pig brain cortex.

Take `O=C(CCC(NC(=O)c1cc(Cl)cc(Cl)c1)C(=O)N1CCC2(CCCC2)CC1)NC(Cc1c[nH]c2ccccc12)C(=O)O` (centres undefined) [2-[5-(8-Aza-spiro[4.5]dec-8-yl)-4-(3,5-dichloro-benzoylamino)-5-oxo-pentanoylamino]-3-(1H-indol-3-yl)-propionic acid]: the IC50 stood at 12 nM in test [1] and 49 nM in test [2].
With `O=C(CCC(NC(=O)c1cc(Cl)cc(Cl)c1)C(=O)N1CCC2(CCCC2)CC1)NC(Cc1ccc(O)cc1)C(=O)O` (centres undefined) [2-[5-(8-Aza-spiro[4.5]dec-8-yl)-4-(3,5-dichloro-benzoylamino)-5-oxo-pentanoylamino]-3-(4-hydroxy-phenyl)-propionic acid], the IC50 in test [1] was determined as 173 nM; in test [2] it was 320 nM.
For `O=C(CC(NC(=O)CCC(NC(=O)c1cc(Cl)cc(Cl)c1)C(=O)N1CCC2(CCCC2)CC1)C(=O)O)NCc1ccccc1` (centres undefined) [2-[5-(8-Aza-spiro[4.5]dec-8-yl)-4-(3,5-dichloro-benzoylamino)-5-oxo-pentanoylamino]-N-benzyl-succinamic acid], in that order: 76 nM and 385 nM.
Consider `O=C(CCC(NC(=O)c1cc(Cl)cc(Cl)c1)C(=O)N1CCC2(CCCC2)CC1)Nc1ccccc1C(=O)O` (centres undefined) [2-[5-(8-Aza-spiro[4.5]dec-8-yl)-4-(3,5-dichloro-benzoylamino)-5-oxo-pentanoylamino]-benzoic acid], for which the IC50 in test [1] came out at 55 nM; in test [2], 443 nM.
As to `CCCCC(NC(=O)CCC(NC(=O)c1cc(Cl)cc(Cl)c1)C(=O)N1CCC2(CCCC2)CC1)C(=O)O` (centres undefined) [2-[5-(8-Aza-spiro[4.5]dec-8-yl)-4-(3,5-dichloro-benzoylamino)-5-oxo-pentanoylamino]-hexanoic acid], the IC50 in test [1] is 95 nM; in test [2] it was 1060 nM.
As for `CC(NC(=O)CCC(NC(=O)c1cc(Cl)cc(Cl)c1)C(=O)N1CCC2(CCCC2)CC1)C(=O)O` (centres undefined) [2-[5-(8-Aza-spiro[4.5]dec-8-yl)-4-(3,5-dichloro-benzoylamino)-5-oxo-pentanoylamino]-propionic acid], the values for the IC50 in test [1] and in test [2] were 994 nM and 1250 nM, respectively.
Taken in the same sequence, the figures for `O=C(O)CCC(Cc1ccccc1)NC(=O)CCC(NC(=O)c1cc(Cl)cc(Cl)c1)C(=O)N1CCC2(CCCC2)CC1` (centres undefined) [4-[5-(8-Aza-spiro[4.5]dec-8-yl)-4-(3,5-dichloro-benzoylamino)-5-oxo-pentanoylamino]-5-phenyl-pentanoic acid] were 86 nM and 157 nM.
Taken in the same sequence, the figures for `O=C(CCC(NC(=O)c1cc(Cl)cc(Cl)c1)C(=O)N1CCC2(CCCC2)CC1)Nc1ccc(C(=O)O)cc1` (centres undefined) [4-[5-(8-Aza-spiro[4.5]dec-8-yl)-4-(3,5-dichloro-benzoylamino)-5-oxo-pentanoylamino]-benzoic acid] were 568 nM and 1760 nM.
On to `CN(C(=O)CCC(NC(=O)c1cc(Cl)cc(Cl)c1)C(=O)N1CCC2(CCCC2)CC1)c1ccc(C(=O)O)cc1` (centres undefined) [4-{[5-(8-Aza-spiro[4.5]dec-8-yl)-4-(3,5-dichloro-benzoylamino)-5-oxo-pentanoyl]-methyl-amino}-benzoic acid], for which the results for the IC50 in test [1] and in test [2] were 1080 nM and 1420 nM, respectively.
Taken in the same sequence, the figures for `O=C(CCC(NC(=O)c1cc(Cl)cc(Cl)c1)C(=O)N1CCC2(CCCC2)CC1)N[C@H](Cc1c[nH]c2ccccc12)C(=O)O` (stereo partly drawn) [(R)-2-[5-(8-Aza-spiro[4.5]dec-8-yl)-4-(3,5-dichloro-benzoylamino)-5-oxo-pentanoylamino]-3-(1H-indol-3-yl)-propionic acid] were 9 nM and 40 nM.
Taken in the same sequence, the figures for `O=C(CCC(NC(=O)c1cc(Cl)cc(Cl)c1)C(=O)N1CCC2(CCCC2)CC1)N[C@H](CC1CCCCC1)C(=O)O` (stereo partly drawn) [(R)-2-[5-(8-Aza-spiro[4.5]dec-8-yl)-4-(3,5-dichloro-benzoylamino)-5-oxo-pentanoylamino]-3-cyclohexyl-propionic acid] were 142 nM and 612 nM.
Taken in the same sequence, the figures for `O=C(CCC(NC(=O)c1cc(Cl)cc(Cl)c1)C(=O)N1CCC2(CCCC2)CC1)N[C@H](Cc1cccc2ccccc12)C(=O)O` (stereo partly drawn) [(R)-2-[5-(8-Aza-spiro[4.5]dec-8-yl)-4-(3,5-dichloro-benzoylamino)-5-oxo-pentanoylamino]-3-naphthalen-1-yl-propionic acid] were 9 nM and 67 nM.
With `O=C(CCC(NC(=O)c1cc(Cl)cc(Cl)c1)C(=O)N1CCC2(CCCC2)CC1)N[C@H](Cc1ccc2ccccc2c1)C(=O)O` (stereo partly drawn) [(R)-2-[5-(8-Aza-spiro[4.5]dec-8-yl)-4-(3,5-dichloro-benzoylamino)-5-oxo-pentanoylamino]-3-naphthalen-2-yl-propionic acid], the IC50 in test [1] was 24 nM; in test [2], 129 nM.
In the case of `O=C(CCC(NC(=O)c1cc(Cl)cc(Cl)c1)C(=O)N1CCC2(CCCC2)CC1)N[C@H](Cc1ccccn1)C(=O)O` (stereo partly drawn) [(R)-2-[5-(8-Aza-spiro[4.5]dec-8-yl)-4-(3,5-dichloro-benzoylamino)-5-oxo-pentanoylamino]-3-pyridin-2-yl-propionic acid], the IC50 in test [1] amounted to 307 nM; in test [2], 155 nM.
For `O=C(O)C[C@@H](NC(=O)CCC(NC(=O)c1cc(Cl)cc(Cl)c1)C(=O)N1CCC2(CCCC2)CC1)C(=O)N1CCC2(CCCC2)CC1` (stereo partly drawn) [(R)-4-(8-Aza-spiro[4.5]dec-8-yl)-3-[5-(8-aza-spiro[4.5]dec-8-yl)-4-(3,5-dichloro-benzoylamino)-5-oxo-pentanoylamino]-4-oxo-butyric acid], in that order: 200 nM and 1350 nM.
Taken in the same sequence, the figures for `O=C(O)CC[C@@H](NC(=O)CCC(NC(=O)c1cc(Cl)cc(Cl)c1)C(=O)N1CCC2(CCCC2)CC1)C(=O)NCCCc1ccccc1` (stereo partly drawn) [(R)-4-[5-(8-Aza-spiro[4.5]dec-8-yl)-4-(3,5-dichloro-benzoylamino)-5-oxo-pentanoylamino]-4-(3-phenyl-propylcarbamoyl)-butyric acid] were 117 nM and 1860 nM.
In the case of `O=C(O)CC[C@@H](NC(=O)CCC(NC(=O)c1cc(Cl)cc(Cl)c1)C(=O)N1CCC2(CCCC2)CC1)C(=O)Nc1cccc2ccccc12` (stereo partly drawn) [(R)-4-[5-(8-Aza-spiro[4.5]dec-8-yl)-4-(3,5-dichloro-benzoylamino)-5-oxo-pentanoylamino]-4-(naphthalen-1-ylcarbamoyl)-butyric acid], the IC50 in test [1] worked out at 17 nM; in test [2], 85 nM.
Taken in the same sequence, the figures for `O=C(O)CC[C@@H](NC(=O)CCC(NC(=O)c1cc(Cl)cc(Cl)c1)C(=O)N1CCC2(CCCC2)CC1)C(=O)NCc1ccccc1` (stereo partly drawn) [(R)-4-[5-(8-Aza-spiro[4.5]dec-8-yl)-4-(3,5-dichloro-benzoylamino)-5-oxo-pentanoylamino]-4-benzylcarbamoyl-butyric acid] were 38 nM and 427 nM.
On to `O=C(O)CC[C@@H](NC(=O)CCC(NC(=O)c1cc(Cl)cc(Cl)c1)C(=O)N1CCC2(CCCC2)CC1)C(=O)NCCc1ccccc1` (stereo partly drawn) [(R)-4-[5-(8-Aza-spiro[4.5]dec-8-yl)-4-(3,5-dichloro-benzoylamino)-5-oxo-pentanoylamino]-4-phenethylcarbamoyl-butyric acid], for which the IC50 is 398 nM in test [1] and 1110 nM in test [2].
`O=C(O)CC[C@@H](NC(=O)c1cc(Cl)cc(Cl)c1)C(=O)N1CCC2(CCCC2)CC1` [(R)-5-(8-Aza-spiro[4.5]dec-8-yl)-4-(3,5-dichloro-benzoylamino)-5-oxo-pentanoic acid]: in test [1], the midpoint of inhibition, the IC50, lay at 1220 nM.

What is called IC50 is the concentration needed to halve the response being measured. The low end stands for inhibition by little substance, the high end for a need for much substance.

Values taken from BindingDB's records for doi:10.1021/jm950372w (Rotta Research Laboratorium, 1996).
